Columns and labels:
pigweed [1] = assay: Test A pre-/postemergence herbicide test; assay type: in vivo, Amaranthus retroflexus
In short: (§1)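 Approximately 10 days after treatment in the greenhouse, plants were compared with untreated controls and given a 0–100 visual injury rating. Applications: preemergence directed soil spray; postemergence on 2–10 cm plants at the one- to two-leaf stage.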

wheat = assay: Test A pre-/postemergence herbicide test; assay type: in vivo, Triticum aestivum; conditions: Postemergence
In short: as §1

galium = assay: Test C pre-/postemergence herbicide test; assay type: in vivo, Galium aparine; conditions: Preemergence; for Plant response rating, Galium: 125 g ai/ha; for Plant response rating (scale of 0 to 100), Galium: 250 g ai/ha
In short: (§2)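 Plants grown and held in a greenhouse for 13 to 15 days post-spray, then rated 0–100 by visual comparison with controls. Pre treatments targeted seeds in loam and sand; post treatments targeted 1- to 4-leaf plants in peat-based potting medium.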

corn = assay: Test C pre-/postemergence herbicide test; assay type: in vivo, Zea mays
In short: as §2

foxtail, giant = assay: Test C pre-/postemergence herbicide test; assay type: in vivo, Setaria faberii
In short: as §2

johnsongrass = assay: Test C pre-/postemergence herbicide test; assay type: in vivo, Sorghum halepense
In short: as §2

lambsquarters = assay: Test C pre-/postemergence herbicide test; assay type: in vivo, Chenopodium album
In short: as §2

nutsedge, yellow = assay: Test C pre-/postemergence herbicide test; assay type: in vivo, Cyperus esculentus
In short: as §2

pigweed [2] = assay: Test C pre-/postemergence herbicide test; assay type: in vivo, Amaranthus retroflexus
In short: as §2

oilseed rape = assay: Test C pre-/postemergence herbicide test; assay type: in vivo, Brassica napus
In short: as §2

waterhemp = assay: Test C pre-/postemergence herbicide test; assay type: in vivo, Amaranthus rudis
In short: as §2

velvetleaf = assay: Test C pre-/postemergence herbicide test; assay type: in vivo, Abutilon theophrasti
In short: as §2

[3] = 31 g ai/ha, scale 0 to 100, 0 is no effect and 100 is complete control
[4] = 62 g ai/ha, scale 0 to 100 (0 no effect, 100 complete control)
[5] = Postemergence, 31 g ai/ha, scale 0 to 100 (0 no effect, 100 complete control)
[6] = Postemergence, 62 g ai/ha, scale 0 (no effect) to 100 (complete control)
[7] = Postemergence, 125 g ai/ha, scale 0 to 100 (0 no effect, 100 complete control)
[8] = Postemergence, 250 g ai/ha, scale 0 to 100 (0 no effect, 100 complete control)
[9] = Preemergence, 31 g ai/ha, scale 0 to 100, 0 is no effect and 100 is complete control
[10] = Preemergence, 62 g ai/ha, scale 0 to 100 (0 no effect, 100 complete control)
[11] = Preemergence, 125 g ai/ha, scale 0 to 100
[12] = Preemergence, 125 g ai/ha, scale 0 to 100 (0 no effect, 100 complete control)

SMILES: O=C1NCC(c2cccc(C(F)(F)F)c2)C1C(=O)Nc1cccc(Cl)c1F (stereo not drawn) [Compound 316]
- Plant response rating, Pigweed (pigweed [1]; Postemergence, 125 g ai/ha, visual rating on 0 to 100 scale (0 no effect, 100 complete control), approx. 10 days): 0
- Plant response rating, Pigweed (pigweed [1]; Postemergence, 500 g ai/ha, 0 to 100 scale (0 no effect, 100 complete control)): 20
- Plant response rating, Pigweed (pigweed [1]; Preemergence, 125 g ai/ha, 0 to 100 scale where 0 is no effect and 100 is complete control): 20
- Pigweed plant response rating (pigweed [1]; Preemergence, 500 g ai/ha, visual rating on 0 to 100 scale (0 no effect, 100 complete control)): 20
- Plant response rating, Wheat (wheat; 125 g ai/ha, visual rating on 0 to 100 scale (0 no effect, 100 complete control), approx. 10 days): 20
- Plant response rating, Wheat (wheat; 500 g ai/ha, 0 to 100 scale (0 no effect, 100 complete control)): 40
- Galium plant response rating (galium; [3]): 0
- Galium plant response rating (galium; [4]): 0
- Plant response rating, Galium (galium; scale 0 to 100): 0
- Plant response rating (scale of 0 to 100), Galium (galium): 90
- Plant response rating, Corn (corn; [5]): 0
- Plant response rating, Corn (corn; [6]): 0
- Plant response rating, Corn (corn; [7]): 0
- Plant response rating, Corn (corn; [8]): 0
- Corn plant response rating (corn; [9]): 15
- Corn plant response rating (corn; [10]): 75
- Plant response rating, Corn (corn; [11]): 65
- Plant response rating (scale of 0 to 100), Corn (corn; Preemergence, 250 g ai/ha): 75
- Plant response rating, Foxtail, Giant (foxtail, giant; [5]): 5
- Plant response rating, Foxtail, Giant (foxtail, giant; [6]): 5
- Plant response rating, Foxtail, Giant (foxtail, giant; [7]): 85
- Plant response rating, Foxtail, Giant (foxtail, giant; [8]): 85
- Foxtail, Giant plant response rating (foxtail, giant; [9]): 85
- Foxtail, Giant plant response rating (foxtail, giant; [10]): 90
- Plant response rating, Foxtail, Giant (foxtail, giant; [11]): 90
- Plant response rating (scale of 0 to 100), Foxtail, Giant (foxtail, giant; Preemergence, 250 g ai/ha): 95
- Plant response rating, Johnsongrass (johnsongrass; [5]): 0
- Plant response rating, Johnsongrass (johnsongrass; [6]): 0
- Plant response rating, Johnsongrass (johnsongrass; [7]): 0
- Plant response rating, Johnsongrass (johnsongrass; [8]): 0
- Johnsongrass plant response rating (johnsongrass; [9]): 50
- Johnsongrass plant response rating (johnsongrass; [10]): 75
- Plant response rating, Johnsongrass (johnsongrass; [11]): 75
- Plant response rating (scale of 0 to 100), Johnsongrass (johnsongrass; Preemergence, 250 g ai/ha): 85
- Plant response rating, Lambsquarters (lambsquarters; [5]): 55
- Plant response rating, Lambsquarters (lambsquarters; [6]): 65
- Plant response rating, Lambsquarters (lambsquarters; [7]): 40
- Plant response rating, Lambsquarters (lambsquarters; [8]): 65
- Lambsquarters plant response rating (lambsquarters; [9]): 0
- Lambsquarters plant response rating (lambsquarters; [10]): 20
- Plant response rating, Lambsquarters (lambsquarters; [11]): 65
- Plant response rating (scale of 0 to 100), Lambsquarters (lambsquarters; Preemergence, 250 g ai/ha): 65
- Plant response rating, Nutsedge, Yellow (nutsedge, yellow; [5]): 0
- Plant response rating, Nutsedge, Yellow (nutsedge, yellow; [6]): 0
- Plant response rating, Nutsedge, Yellow (nutsedge, yellow; [7]): 0
- Plant response rating, Nutsedge, Yellow (nutsedge, yellow; [8]): 0
- Nutsedge, Yellow plant response rating (nutsedge, yellow; [9]): 0
- Nutsedge, Yellow plant response rating (nutsedge, yellow; [10]): 0
- Plant response rating, Nutsedge, Yellow (nutsedge, yellow; [11]): 0
- Plant response rating (scale of 0 to 100), Nutsedge, Yellow (nutsedge, yellow; Preemergence, 250 g ai/ha): 70
- Plant response rating, Pigweed (pigweed [2]; [5]): 15
- Plant response rating, Pigweed (pigweed [2]; [6]): 50
- Plant response rating, Pigweed (pigweed [2]; [7]): 60
- Plant response rating, Pigweed (pigweed [2]; [8]): 75
- Pigweed plant response rating (pigweed [2]; [9]): 25
- Pigweed plant response rating (pigweed [2]; [10]): 25
- Plant response rating, Pigweed (pigweed [2]; [11]): 45
- Plant response rating, Oilseed Rape (oilseed rape; [5]): 0
- Plant response rating, Oilseed Rape (oilseed rape; [6]): 0
- Plant response rating, Oilseed Rape (oilseed rape; [7]): 0
- Plant response rating, Oilseed Rape (oilseed rape; [8]): 0
- Oilseed Rape plant response rating (oilseed rape; [9]): 0
- Oilseed Rape plant response rating (oilseed rape; [10]): 0
- Plant response rating, Oilseed Rape (oilseed rape; [11]): 20
- Plant response rating (scale of 0 to 100), Oilseed Rape (oilseed rape; Preemergence, 250 g ai/ha): 60
- Plant response rating, Waterhemp (waterhemp; [5]): 10
- Plant response rating, Waterhemp (waterhemp; [6]): 10
- Plant response rating, Waterhemp (waterhemp; [7]): 10
- Plant response rating, Waterhemp (waterhemp; [8]): 55
- Waterhemp plant response rating (waterhemp; [10]): 35
- Plant response rating, Waterhemp (waterhemp; [11]): 35
- Plant response rating, Velvetleaf (velvetleaf; [5]): 0
- Plant response rating, Velvetleaf (velvetleaf; [6]): 0
- Plant response rating, Velvetleaf (velvetleaf; [7]): 45
- Plant response rating, Velvetleaf (velvetleaf; [8]): 35
- Velvetleaf plant response rating (velvetleaf; [10]): 10
- Plant response rating, Velvetleaf (velvetleaf; [11]): 10

SMILES: O=C1NCC(c2ccc(C(F)(F)F)cc2)C1C(=O)Nc1ccccc1Cl (stereo not drawn) [Compound 233]
- Plant response rating, Pigweed (pigweed [1]; 125 g ai/ha, visual rating, 0 to 100 scale, 0 no effect, 100 complete control, approximately 10 days, preemergence): 30
- Plant response rating, Pigweed (pigweed [1]; Postemergence, 125 g ai/ha, 0 to 100 scale, 0 is no effect, 100 is complete control): 0
- Pigweed plant response rating (0 to 100 scale, 0 is no effect, 100 is complete control) (pigweed [1]; Postemergence, 500 g ai/ha): 20
- Plant response rating, Pigweed (pigweed [1]; preemergence, 500 g ai/ha, 0 to 100 scale, 0 is no effect and 100 is complete control): 30
- Plant response rating, Wheat (wheat; 125 g ai/ha, 0 to 100 scale, 0 is no effect, 100 is complete control): 0
- Wheat plant response rating (0 to 100 scale, 0 is no effect, 100 is complete control) (wheat; 500 g ai/ha): 20
- Galium plant response rating (galium; [3]): 0
- Galium plant response rating (galium; [4]): 80
- Plant response rating, Galium (galium; scale 0 to 100 (0 no effect, 100 complete control)): 90
- Plant response rating (scale of 0 to 100), Galium (galium): 90
- Corn plant response rating (corn; [9]): 0
- Corn plant response rating (corn; [10]): 0
- Plant response rating, Corn (corn; [12]): 10
- Plant response rating (scale of 0 to 100), Corn (corn; Preemergence, 250 g ai/ha): 35
- Foxtail, Giant plant response rating (foxtail, giant; [9]): 85
- Foxtail, Giant plant response rating (foxtail, giant; [10]): 90
- Plant response rating, Foxtail, Giant (foxtail, giant; [12]): 90
- Plant response rating (scale of 0 to 100), Foxtail, Giant (foxtail, giant; Preemergence, 250 g ai/ha): 95
- Johnsongrass plant response rating (johnsongrass; [9]): 0
- Johnsongrass plant response rating (johnsongrass; [10]): 0
- Plant response rating, Johnsongrass (johnsongrass; [12]): 20
- Plant response rating (scale of 0 to 100), Johnsongrass (johnsongrass; Preemergence, 250 g ai/ha): 45
- Lambsquarters plant response rating (lambsquarters; [9]): 85
- Lambsquarters plant response rating (lambsquarters; [10]): 85
- Plant response rating, Lambsquarters (lambsquarters; [12]): 95
- Plant response rating (scale of 0 to 100), Lambsquarters (lambsquarters; Preemergence, 250 g ai/ha): 90
- Nutsedge, Yellow plant response rating (nutsedge, yellow; [9]): 0
- Nutsedge, Yellow plant response rating (nutsedge, yellow; [10]): 0
- Plant response rating, Nutsedge, Yellow (nutsedge, yellow; [12]): 0
- Plant response rating (scale of 0 to 100), Nutsedge, Yellow (nutsedge, yellow; Preemergence, 250 g ai/ha): 0
- Pigweed plant response rating (pigweed [2]; [9]): 50
- Pigweed plant response rating (pigweed [2]; [10]): 50
- Plant response rating, Pigweed (pigweed [2]; [12]): 60
- Plant response rating (scale of 0 to 100), Pigweed (pigweed [2]; Preemergence, 250 g ai/ha): 70
- Oilseed Rape plant response rating (oilseed rape; [9]): 0
- Oilseed Rape plant response rating (oilseed rape; [10]): 40
- Plant response rating, Oilseed Rape (oilseed rape; [12]): 80
- Plant response rating (scale of 0 to 100), Oilseed Rape (oilseed rape; Preemergence, 250 g ai/ha): 85
- Waterhemp plant response rating (waterhemp; [9]): 95
- Waterhemp plant response rating (waterhemp; [10]): 80
- Plant response rating, Waterhemp (waterhemp; [12]): 85
- Plant response rating (scale of 0 to 100), Waterhemp (waterhemp; Preemergence, 250 g ai/ha): 95
- Velvetleaf plant response rating (velvetleaf; [9]): 15
- Velvetleaf plant response rating (velvetleaf; [10]): 25
- Plant response rating, Velvetleaf (velvetleaf; [12]): 45
- Plant response rating (scale of 0 to 100), Velvetleaf (velvetleaf; Preemergence, 250 g ai/ha): 45

From US10294202B2, “Pyrrolidinones as herbicides” (FMC Corporation, priority 2013, dated 2019)
